# Values joined by “and” are separate entries in the source; they are usually repeats but may differ in a detail not shown here. Equal values may be shown once.
# How the values were obtained:
# [1] = Hygroscopicity (moisture microbalance); format: physicochemical; details: 10% to 90% humidity, 25°C
# Procedure: A temperature of 25°C is maintained during all hygroscopicity measurements.
# [2] = Accelerated chemical stability (reverse phase HPLC); details: same accelerated stability conditions
# [3] = Plasma pharmacokinetics, bolus versus 15 hr divided dosing (Example 1); format: in vivo; details: human
# [4] = test system: healthy male human subjects; assay: Side effects by visual analogue scales and emesis (Example 1); format: in vivo
# [5] = Plasma pharmacokinetics, bolus versus 7 hr divided dosing (Example 2); format: in vivo; details: human, fasted, mean; for AUC(0-t): po, 200 mg
# [6] = test system: healthy male human subjects; assay: Side effects by visual analogue scales and emesis (Example 2); format: in vivo
# [7] = Pharmacokinetics of sertraline delivered to various portions of the gastrointestinal tract (Example 3); format: in vivo; details: for AUC(0-t): human, plasma; for AUC(0-t) / AUC as percent of the AUC observed after dosing with oral tablets: 200 mg
# [8] = test system: healthy male human subjects; assay: Side effect score versus plasma concentration, PK/PD (Example 6); format: in vivo
# [9] = Mechanical properties of compacts of the pure drug substance; format: physicochemical
# Procedure: The measurements of mechanical properties can be routinely accomplished using square compacts of the pure drug substance, in this case sertraline acetate and sertraline L-lactate. The measurements are made in triplicate and the compacts are prepared by uniaxial compression and triaxial decompression.
# Samples for the testing of mechanical properties are prepared according to standard procedures. To generate reliable data, such samples must be free of mechanical flaws, such as microcracks. Therefore, a specialized tablet press, prepared as described in U.S. Patent No. 4,880,373, is utilized. […] The apparent density of the compact is determined by measuring the […]. […] The true density of the powder is determined by helium pycnometry. Ordinarily, to achieve the desired solid fraction, trial compactions of carefully weighed powder samples must be performed and the solid fraction of the resultant compact is measured. […]
# Dynamic indentation hardness, H0, of the compacts is measured with a pendulum impact apparatus , prepared as described in U.S. Patent No. 4,885,933. […] The time required for the pendulum to pass between two photocells of given distance apart is measured and the pendulum rebound height, hr is automatically calculated. […]
# [10] = 200 mg single dose (Group A), two 100 mg immediate release tablets (ZOLOFT), oral, fasted, mean
# [11] = 200 mg bolus dose group, individual subjects
# [12] = GROUP A (Bolus Dose) 200 mg, summed over 24 hr post-dose
# [13] = GROUP B (16 Divided Doses) 12.5 mg hourly, summed over 24 hr post-dose
# [14] = 200 mg single dose, two 100 mg immediate release tablets (ZOLOFT), oral, four subjects with emesis not included
# [15] = GROUP B (8 Divided Doses) 25 mg hourly
# [16] = GROUP A, Ileocecal Infusion, 200 mg as 2 mg/ml solution
# [17] = GROUP A, Stomach Infusion, 200 mg as 2 mg/ml solution
# [18] = GROUP B, Colonic Infusion (transverse colon), 200 mg as 2 mg/ml solution
# [19] = GROUP B, Duodenal Infusion, 200 mg as 2 mg/ml solution
compound,measurement,setting,value
CN[C@H]1CC[C@@H](c2ccc(Cl)c(Cl)c2)c2ccccc21.N[C@@H](CC(=O)O)C(=O)O [sertraline L-aspartate],hygroscopicity,[1],not hygroscopic
same,purity of samples after stability testing,[2],greater than 99%
"CN[C@H]1CC[C@@H](c2ccc(Cl)c(Cl)c2)c2ccccc21 [sertraline, (1S-cis)-4-(3,4-dichlorophenyl)-1,2,3,4-tetrahydro-N-methyl-1-naphthalenamine]",AUC(0-t),[3]; [10],1650 ng·h/mL
same,CMAX,[3]; [10],74 ng/mL
same,TMAX,[3]; [10],6 h
same,AUC(0-t),[3]; po,1230 ng·h/mL
same,subjects with emesis,[4]; 200 mg bolus dose group (15 subjects),Three
same,time of emesis,[4]; [11],4.25 h and 11.2 h and 7.6 h
same,emetic episodes,[4]; 15 hr divided dose regimen (16 x 12.5 mg),no emetic episodes
same,Mean cumulative score: Abdominal Cramping,[4]; [12],3.1
same,Mean cumulative score: Diarrhea,[4]; [12],3.9
same,Mean cumulative score: Nausea,[4]; [12],17.5
same,Mean cumulative score: Regurgitation,[4]; [12],4.0
same,Mean cumulative score: Tremor,[4]; [12],7.9
same,Mean cumulative score: Urgency to Defecate,[4]; [12],3.1
same,Mean cumulative score: Abdominal Pain,"[4]; GROUP A (Bolus Dose) 200 mg, visual analogue scores summed over 24 hr post-dose",2.7
same,Mean cumulative score: Abdominal Cramping,[4]; [13],0.1
same,Mean cumulative score: Abdominal Pain,[4]; [13],0.1
same,Mean cumulative score: Diarrhea,[4]; [13],0.2
same,Mean cumulative score: Nausea,[4]; [13],2.6
same,Mean cumulative score: Regurgitation,[4]; [13],0.3
same,Mean cumulative score: Tremor,[4]; [13],1.7
same,CMAX,[5]; [14],75 ng/mL
same,TMAX,[5]; [14],5.4 h
same,AUC(0-t),"[5]; 25 mg per hr for 7 hr, eight 25 mg doses as solution",1440 ng·h/mL
same,AUC(0-t),"[5]; 200 mg single dose, two 100 mg immediate release tablets (ZOLOFT), four subjects with emesis not included",1740 ng·h/mL
same,time of emesis,[6]; [11],2.6 hr and 2.8 hr (2×) and 3.8 hr
same,emetic events,"[6]; 7 hr divided dose group, 8 x 25 mg (n=16)",1
same,time of emesis,"[6]; 7 hr divided dose regimen, one subject",12.6 h
same,Mean cumulative score: Dizziness,[6]; GROUP A (Bolus Dose) 200 mg,10.4
same,Mean cumulative score: Regurgitation,[6]; GROUP A (Bolus Dose) 200 mg,3.9
same,Mean cumulative score: Tremor,[6]; GROUP A (Bolus Dose) 200 mg,8.9
same,Mean cumulative score: Dizziness,[6]; [15],4.8
same,Mean cumulative score: Regurgitation,[6]; [15],0.1
same,Mean cumulative score: Tremor,[6]; [15],2.7
same,CMAX,[7]; [16],27.3 ng/mL
same,TMAX,[7]; [16],5.0 h
same,TMAX,"[7]; GROUP A, Oral Tablet, 200 mg as two 100 mg tablets",7.0 h
same,CMAX,"[7]; GROUP A, Oral Tablet, 200 mg as two 100 mg tablets, 6 volunteers",39.9 ng/mL
same,CMAX,[7]; [17],35.6 ng/mL
same,TMAX,[7]; [17],7.0 h
same,CMAX,[7]; [18],10.9 ng/mL
same,TMAX,[7]; [18],4.4 h
same,CMAX,[7]; [19],48.8 ng/mL
same,TMAX,[7]; [19],3.7 h
same,TMAX,"[7]; GROUP B, Oral Tablet, 200 mg as two 100 mg tablets",6.7 h
same,CMAX,"[7]; GROUP B, Oral Tablet, 200 mg as two 100 mg tablets, 6 volunteers",44.7 ng/mL
same,AUC(0-t),[7]; [16],727 ng·h/mL
same,AUC(0-t),[7]; [17],923 ng·h/mL
same,AUC(0-t),[7]; [18],179 ng·h/mL
same,AUC(0-t),[7]; [19],1270 ng·h/mL
same,AUC(0-t),"[7]; po, GROUP A, Oral Tablet, 200 mg as two 100 mg tablets",1170 ng·h/mL
same,AUC(0-t),"[7]; po, GROUP B, Oral Tablet, 200 mg as two 100 mg tablets",1150 ng·h/mL
same,AUC as percent of the AUC observed after dosing with oral tablets,[7]; infusion into the duodenal region,110%
same,AUC as percent of the AUC observed after dosing with oral tablets,[7]; infusion into the ileocecal region of the small intestine,62%
same,AUC as percent of the AUC observed after dosing with oral tablets,[7]; infusion into the stomach,79%
same,AUC as percent of the AUC observed after dosing with oral tablets,[7]; infusion into the transverse colon,16%
same,time at which the maximum diarrhea score was reached,"[8]; Study 1, 200 mg bolus dose, post-dose",3 h
same,time of emesis,"[8]; Study II, 200 mg dose group, individual subjects",2.6 hr and 2.8 hr (2×) and 3.8 hr
sertraline acetate,hygroscopicity,[1],not hygroscopic
same,ductility (assessment in words),[9],high ductility
same,elastic modulus (assessment in words),[9],relatively low elastic modulus
same,purity of samples after stability testing,[2],greater than 99%

# Source: patent EP1736150A2 (Pfizer, Inc., priority 1997, dated 1999)
